Consider nine compounds from patent publication EP0497921B1, “METHOD FOR INHIBITING ENZYMATIC SYNTHESIS OF NUCLEIC ACIDS USING ISOPSORALENS” (ISAACS, Stephen T., priority 1989, dated 1991).

Values after ≈ are worked out from the molar mass of the structure shown. Where two headings read alike, the source gives them in different places.

Series [1] has as its system Hind-III restriction fragments of lambda DNA. In words: Photobinding of BIODMIP to lambda DNA fragments. The format is binding. The settings on record: 100 µg/ml plus 50 µg additional; two 30 minute irradiations at room temperature with the PTI device. On the procedure:
BIODMIP (100 µg/ml) was irradiated for 30 minutes at room temperature with the PTI device in 500 µl of 1 x TE buffer with 2 µg of Hind-III restriction fragments of lambda DNA. After the first irradiation, the mixture was transferred to a new tube containing 50 µg additional BIODMIP and this was incubated at 37°C for one hour to dissolve the compound. This was followed by a second 30 minute irradiation at room temperature with the PTI device. It was observed that, under these conditions BIODMIP added to the DNA at a ratio of 1 covalently bound BIODMIP per 20 base pairs.

Series [2] relates to DNA polymerase I from E. coli. B. The settings on record: cited from earlier work; for template activity lost by modified DNA: C.M. Ou et al., covalently modified DNA.
The conditions of series [3]: water; cited from earlier work.
The next series has as its system human placental DNA. Kind of series: PCR amplification with unirradiated AMDMIP and DMSO co-solvent. The format is biochemical. The settings on record: no AMDMIP, average of duplicates, 139,000 at 0% DMSO. On the procedure: In this example, the effect of DMSO on PCR amplification in the presence of high concentrations of sterilizing compound (AMDMIP) was investigated. Samples were prepared for PCR which contained 1 µg of human placental DNA either with or without (unirradiated) AMDMIP (200 µg/ml). The samples were amplified 30 cycles under standard PCR conditions in the presence of 0%, 1%, 5% or 10% DMSO. The reaction mix contained α-^32P-dCTP. Following amplification, the samples were analyzed by PAGE (data not shown).

For another series, the system named is Taq I DNA polymerase. Kind of series: Primer extension on site-specific 71-mer monoadduct template. The settings on record: 55°C; 0.5, 1.0, 5.0 mins; PAGE, autoradiography. The series is classed as biochemical, Thermus aquaticus. On the procedure: In this experiment, monoadducted 71-mers (as well as unmodified 71-mers) were used in template-dependent enzymatic extension. AMIP, AMDMIP, and MIP 71-mer monoadducts were made as in Example 17. Extension was carried out as in Example 18 except that in this experiment, Taq I DNA polymerase, a thermostable DNA polymerase isolated from Thermus aquaticus (Stratagene, Inc., La Jolla, CA) was assessed for its ability to read past isopsoralens.
The reaction mixture was in 80 µl total volume and comprised 1 x Taq buffer, 200 µM each of dNTP's, 0.05 units of Taq per µl of reaction volume; 1 x 10^-9 M in 71-mer MA; 1 x 10^-8 M in ^32P-labelled SK-39. Each reaction was set up with everything except Taq polymerase. The samples were initially heated to 95°C for 5 mins, then incubated at 55°C for 3 mins. The extension reaction was initiated by addition of Taq polymerase. At the indicated time points (0.5, 1.0, 5.0 mins), 20 µl of the reaction mix was removed to a tube containing 1 µl of 0.5 M EDTA to stop the reaction. All products were analyzed on a 20% polyacrylamide, 7 M urea gel followed by autoradiography.
This experiment investigated whether blocking of Taq polymerase by monoadducts is complete or whether monoadducts can be bypassed by the enzyme. In order to view the process of bypass synthesis, it is necessary to cycle the extension reaction of the primer with the 71-mer templates. Cycling in this case consists of mixing the primer with the 71-mer template, adding Taq polymerase and appropriate reagents, extending, heating to induce strand separation, reannealing of the primer to the 71-mer template, extending again, and subsequent stand separation. This process can be repeated as necessary. During this process, only the complement of the 71-mer template is being synthesized. It is accumulating in a linear fashion with the number of thermal cycles (in contrast to PCR where both strands are being synthesized and accumulate geometrically).
The templates and reaction conditions were as in Example 19 above except that three samples were used for each monoadduct and each sample was tested under different conditions: • Samples (1): one sample for each monoadduct was used to carry out extension at 55°C as in Example 43; • Samples (2): one sample for each monoadduct was used to carry out extension by the following series of steps: denaturing at 95°C; incubating for 30 seconds at 55°C; adding Taq polymerase for 3 minutes at 550C; cooling the reaction for 1 minute at 7°C; stopping the reaction with EDTA for one minute at 95°C: • Samples (3): one sample for each monoadduct was used to carry out extension by repeating the following series of steps nine times: denaturing at 95°C; incubating for 30 seconds at 55°C; adding Taq polymerase for 3 minutes at 55°C; cooling the reaction for 1 minute at 7°C. At the end, the reaction is stopped with EDTA for one minute at 95°C.
To investigate this question further, a new 5-MIP monoadducted 71-mer was prepared by repurification of the HPLC purified 5-MIP monoadducted 15-mer by PAGE. In this way, more of the non-monoadducted 15-mer was removed prior to ligation. The purified 71-mer was then used as template in an extension experiment as described in Example 20. After 10 cycles, there was still evidence of extension product (Figure 34).
Monoadducted 71-mer was constructed as described, but for HMT. Extension was carried out and analyzed as before on PAGE. […] Full length 71-mer is not made and a shorter strand corresponding to the position of the HMT adduct was made.

The nature of series [4]: Solubility of photoreactive compounds in 1 X TE (optical density of filtrate). The format is physicochemical. Particulars: nd = not detectable (solubility was less than 1 µg/ml). On the procedure: The solubilities of AMIP, AMDMIP, DMIP, MIP and isopsoralen (IP) were determined experimentally according to the scheme set forth in Figure 5. To perform the solubility measurement, it was first necessary to establish known optical densities for a 1 µg/ml solution of each compound. These were determined by preparing either ethanolic or aqueous stocks of each compound at known concentrations in 1 x TE, then measuring the optical density of each solution. From this information, the absorption of a 1 µg/ml solution was computed. Alternatively, the extinction coefficient may be thus determined and used in the same fashion. In this manner, the following absorption data was collected:
Following this step, undissolved compound was removed by filtration using a 0.2 u nylon-66 syringe filter (Arco LC13; Gelman). The concentration of the remaining soluble compound was then determined by measuring the optical density of the filtrate and computing the solubility from the known optical density of a 1 µg/ml solution of that compound. The solubility of the compounds was thus determined to be as follows: […]

The target of a further series is Taq polymerase (Thermus aquaticus, UniProt P19821). Kind of series: Primer extension on 71-mer after random addition of compound or addition of photoproduct. The series is classed as biochemical. An excerpt: In this experiment, the ability of AMIP, AMDMIP and MIP to block replication of 71-mer is investigated by randomly adding each compound to the 71-mer. of course, addition may only be random in the sense that one or more adducts may be formed with any one strand of nucleic acid. The actual placement of the isopsoralen may be governed by preferential binding at particular sites (e.g. A:T). In addition to blockage by random adducts, photoproducts of the various isopsoralens may be providing an inhibitory effect. No attempt to separate the effects of photoproduct from the effects of covalent adducts on the 71-mer template was made in this series of experiments.
Sequence of Taq polymerase (P19821 whole entry): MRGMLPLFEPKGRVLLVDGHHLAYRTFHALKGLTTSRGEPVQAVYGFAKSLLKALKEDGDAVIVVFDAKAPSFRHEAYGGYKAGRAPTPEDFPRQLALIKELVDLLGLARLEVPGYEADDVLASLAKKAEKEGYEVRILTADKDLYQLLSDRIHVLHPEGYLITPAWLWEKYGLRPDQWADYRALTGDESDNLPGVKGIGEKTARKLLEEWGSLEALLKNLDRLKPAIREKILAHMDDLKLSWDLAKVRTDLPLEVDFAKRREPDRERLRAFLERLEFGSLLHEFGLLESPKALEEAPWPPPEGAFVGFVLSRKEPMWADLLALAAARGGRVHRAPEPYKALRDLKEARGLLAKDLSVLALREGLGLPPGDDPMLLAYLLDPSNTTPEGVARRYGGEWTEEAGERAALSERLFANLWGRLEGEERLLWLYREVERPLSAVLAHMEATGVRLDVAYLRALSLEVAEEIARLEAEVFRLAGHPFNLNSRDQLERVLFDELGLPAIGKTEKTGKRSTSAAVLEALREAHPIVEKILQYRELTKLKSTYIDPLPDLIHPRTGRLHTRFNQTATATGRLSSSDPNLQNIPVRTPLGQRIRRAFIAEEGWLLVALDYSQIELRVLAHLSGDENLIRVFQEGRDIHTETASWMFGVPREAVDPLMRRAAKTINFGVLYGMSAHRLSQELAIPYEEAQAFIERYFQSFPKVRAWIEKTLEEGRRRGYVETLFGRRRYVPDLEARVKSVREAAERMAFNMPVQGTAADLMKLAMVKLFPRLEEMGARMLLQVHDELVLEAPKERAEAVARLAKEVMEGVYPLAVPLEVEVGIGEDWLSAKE
In these experiments, the 71-mer template (10^-9 M) was primed with ^32P-SK-39 (10^-8) and extended with Taq polymerase in a total volume of 20 µl. The dNTP concentration was 200 µM. In the control samples, the 71-mer, the primer, and the dNTPs were mixed in Taq buffer in a volume of 18 µl. These samples were initially denatured at 95°C for 5 minutes, followed by equilibration at 550C for 3 minutes. Taq enzyme was then added (0.5 units) and the extension reaction was carried out for 5 minutes at 55°C. The reaction was stopped by making the solution 10 mM in EDTA. In another set of samples, the 71-mer in 10 µl was mixed with either AMIP (200 µg/ml), AMDMIP (200 µg/ml), or MIP (60 µg/ml). Half of these samples were irradiated for 15 minutes on the CE-I device at 25°C. The other half was kept in the dark as controls. These samples were then mixed with the primer and dNTPs as before, and were subjected to the same thermal profile and extension reactions as the samples that were described earlier. The results were examined by PAGE. The extended product bands were identified by autoradiography, excised and counted (data not shown).
In this experiment, the ability of two different Phenylazide derivatives (see Table 1), photobiotin (Vector Labs) and monoazide ethidium chloride, to block replication of 71-mer was investigated by randomly adding each compound to the 71-mer. Again, addition may only be random in the sense that one or more adducts may be formed with any one strand of nucleic acid. The actual placement of these compounds may be governed by preferential binding at particular sites (e.g. A:T). In addition to blockage by random adducts, there may be inhibition by photoproducts. As in Example 23, no attempt was made to separate the impact of photoproducts from that of covalent binding of photoreactive compound on the 71-mer.
The two compounds, photobiotin and monoazide ethidium chloride, have different spectral characteristics. To activate these compounds, two different wavelength regions were selected using a single light source (General Electric Sunlamp, Model RSM, 275 watt). The light source was positioned 10 cm above uncapped Eppendorph tubes which contained samples to be irradiated. The samples were kept on ice during irradiation. A pyrex dish was placed between the lamp and the samples.
For samples containing photobiotin, 2.5 cm of water was added to the pyrex dish to help remove some of the infrared radiation. The samples were irradiated for 15 minutes.
For samples containing monoazide ethidium chloride, wavelengths less than 400 nm were filtered out by using 2.5 cm of an aqueous solution of 2.9 M NaNO2. Removal of short wavelengths (i.e. wavelengths shorter than 400 nm) is necessary for the use of monoazide ethidium chloride. Irradiation of this compound with shorter wavelengths results in conversion to non-active forms (data not shown). Wavelengths below 400 nm are therefore undesirable for use with this compound.
In this experiment, the 71-mer template (2 x 10^-9 M) in 10 µl was mixed with either no photoreactive compound, photobiotin (6 x 10^-6 M), or monoazide ethidium (1.4 x 10^-3 M). Half of each of these samples were irradiated on ice for 15 minutes with wavelengths appropriate for each specific photoreactive compound. […]

A further series deals with HIV 115-mer. In words: PCR with pre-irradiated photobiotin or monoazide ethidium chloride. The format is biochemical. On the procedure: In this experiment, photobiotin and monoazide ethidium chloride were tested as PCR sterilization reagents. The temporal steps were performed to examine photoproduct effects (if any). Solutions of photobiotin and monoazide ethidium chloride were made up in 1 x Taq buffer. Concentrations of photobiotin ranged form 7 x 10^-4 M to […]: concentrations of the monoazide ethidium chloride ranged from 3 x 10^-9 M to 3 x 10^-10M. […] Each compound solution was divided into two parts: One part was irradiated under a GE sunlamp through a pyrex filter (300nm cut-off); the other half was irradiated under a GE sunlamp through a 2.9 M NaNO2 liquid filter (400 nm cut-off). Irradiations were carried out on ice for 15 minutes. After irradiation, aliquots of each tube were carried over into tubes containing PCR reagents and target (HIV 115-mer); PCR was then carried out for 30 cycles in the presence of α-^32P-dCTP. After amplification aliquots were analyzed on 12% acrylamide/8M urea gels.

On to `Cc1oc2ccc3c(C)cc(=O)oc3c2c1CN(C)CCCCCCN(C)C(=O)CCCCCNC(=O)CCCC[C@@H]1SC[C@@H]2NC(=O)N[C@@H]21` [BIODMIP, 4'-N-[N,N'-dimethyl-N'-(6-{biotinamido} -hexanoate)-1,6-hexanediamine] -methyl-4,5'-dimethylisopsoralen], for which the “ratio of 1 covalently bound BIODMIP per n base pairs” value in series [1] is 20 base pairs.
As for `COc1c2occc2cc2ccc(=O)oc12` [Compound 8-MOP, 8-methoxypsoralen], the “template activity lost by modified DNA” value in series [2] is 97%.
Take `COc1cc(OC)c2ccc(=O)oc2c1` [DMC, 5,7-dimethoxycoumarin]: the “template activity lost by modified DNA” value in series [2] was 50%.
As for `Cc1cc2c(ccc3c(C)cc(=O)oc32)o1` [DMIP, 4,5'-Dimethylisopsoralen], the maximum aqueous solubility in series [3] was 8 µg/mL.
Consider `C[S+](C)[O-]` [DMSO, dimethyl sulfoxide], for which the “CPM of product bands” value is given as 137,000 CPM in the series on human placental DNA (1% DMSO), 94,000 CPM in the series with human placental DNA (5% DMSO) and 76,000 CPM in the series with human placental DNA (10% DMSO).
Regarding `Cc1oc2c(C)c3oc(=O)cc(C)c3cc2c1CO` [HMT, 4'-hydroxymethyl-4,5',8-trimethylpsoralen], in the series on Taq I DNA polymerase, the “Taq polymerase extension on 71-mer monoadduct template” value is on record as “stop Taq polymerase”. Also, the “inhibition of E. Coli polymerase I by covalently bound monoadducts” value in series [2] (Piette and Hearst 1983, nick-translating a double-stranded template) is on record as “not inhibited”; in series [2] (Piette and Hearst 1985, single-stranded template (bacteriophage DNA)), “inhibited”.
For `O=c1ccc2ccc3occc3c2o1` [IP, isopsoralen], in series [4], the “Solubility in 1 X TE” value worked out at 2 µg/mL (≈ 10.7 µM).
As for `CN(CCCNC(=O)CCCC[C@@H]1SC[C@@H]2NC(=O)N[C@@H]21)CCCNc1ccc(N=[N+]=[N-])cc1[N+](=O)[O-]` [photobiotin, reference compound], the extension after irradiation entry on Taq polymerase (photobiotin (6 x 10^-6 M), irradiated on ice for 15 minutes, GE sunlamp) is given as “inhibition only after irradiation”. Besides, the “concentration at which pre-irradiated compound shut down PCR” value with HIV 115-mer (highest concentration used, 115-mer amplified at all lower concentrations) was 700 µM.
For the compound “monoazide ethidium chloride [reference compound]”, at Taq polymerase (photobiotin (6 x 10^-6 M) or monoazide ethidium (1.4 x 10^-3 M), kept in the dark), the “extension, dark control” value is reported as “inhibition of extension”. In addition, the “inhibition of PCR by pre-irradiated compound” value with HIV 115-mer (irradiated on ice 15 minutes under GE sunlamp before addition to PCR, 30 cycles) is on record as “does not inhibit PCR”.
